Laboratory results reported in patent US20090170838A1, “Bicycloheteroaryl compounds as P2X7 modulators and uses thereof” (Renovis, Inc., priority 2005, published 2009).

Columns and labels:
P2X7 receptor [1] = target: T1, P2X7 receptor (Homo sapiens, UniProt Q99572); experiment: IL-1β release assay (BzATP-stimulated, LPS/IFN-γ differentiated THP-1 cells, ELISA); assay type: cell-based; conditions: for inhibition at 0.1 µM: at 0.1 μM (asterisk symbols); for inhibition at 0.3 µM: at 0.3 μM (plus symbols)
T1 construct: host or cells: THP-1 cells differentiated with LPS and IFN-γ
T1 sequence (Q99572 1-595): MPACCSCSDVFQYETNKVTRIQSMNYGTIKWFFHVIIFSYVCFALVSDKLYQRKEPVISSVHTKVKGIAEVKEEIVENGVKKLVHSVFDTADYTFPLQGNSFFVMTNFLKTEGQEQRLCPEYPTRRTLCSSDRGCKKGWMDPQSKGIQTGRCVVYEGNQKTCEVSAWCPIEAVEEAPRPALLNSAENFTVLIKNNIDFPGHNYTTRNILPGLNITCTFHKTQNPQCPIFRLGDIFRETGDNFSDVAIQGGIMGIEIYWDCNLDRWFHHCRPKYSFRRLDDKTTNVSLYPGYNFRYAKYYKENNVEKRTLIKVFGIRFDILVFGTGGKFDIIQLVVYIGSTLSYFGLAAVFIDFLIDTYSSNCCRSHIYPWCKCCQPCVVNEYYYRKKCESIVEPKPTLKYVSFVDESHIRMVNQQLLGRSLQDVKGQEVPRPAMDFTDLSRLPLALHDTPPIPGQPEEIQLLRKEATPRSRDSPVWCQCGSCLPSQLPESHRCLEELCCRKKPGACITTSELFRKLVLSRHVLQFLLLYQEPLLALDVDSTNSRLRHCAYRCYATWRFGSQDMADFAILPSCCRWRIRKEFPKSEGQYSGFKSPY
Outline: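 THP-1 cells were differentiated 16 h with LPS and IFN-γ (100 ng/mL each), then primed 2 h with fresh LPS. Compound pretreatment lasted 30 min, followed by 250 uM BzATP for 45 min. Supernatant IL-1β was measured by ELISA, and percent inhibition was calculated from background-adjusted levels.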

P2X7 receptor [2] = target: T1, P2X7 receptor; experiment: Pore formation (Yo-Pro 1 uptake, BzATP-stimulated differentiated THP-1 cells); assay type: cell-based; conditions: for inhibition at 0.1 µM: at 0.1 μM (asterisk symbols); for inhibition at 0.3 µM: at 0.3 μM (plus symbols)
Experimental: THP-1 cells (ATCC Cat # 285-IF-100) are plated in 96 well plates at a concentration of 200,000 cells per well and allowed to differentiate in RPMI-1640 media (ATCC Cat # 30-2001) containing 10% FBS, 100 IU/mL penicillin, 100 ug/mL streptomycin, 100 ng/mL LPS and 100 ng/mL IFN-γ for 16 hours. Following differentiation, the cells are pretreated with the compound of interest at the appropriate concentration for 30 minutes in RPMI-1640 media containing 100 IU/mL penicillin, 100 ug/mL streptomycin. The pretreatment media is then replaced with assay buffer (20 mM HEPES, 10 mM D-glucose, 118 mM NMDG, 5 mM KCl, 0.4 mM CaCl2) containing 5 uM Yo-Pro 1 (Molecular Probes Cat # Y3603) and the compound of interest at the appropriate concentration and the cells are incubated for an additional 10 minutes. 2′,3′-O-(4-benzoylbenzoyl)-adenosine 5′-triphosphate (Sigma Aldrich Cat# B6396) is then added to a final concentration of 40 uM and fluoroscence readings measured at 491/509 excitation/emission every minute for 50 minutes using a Tecan Safire plate reader. During this time temperature is maintained at of 37° C. Background adjusted fluorescence levels between drug treated and non-treated cells are used to calculate the percent inhibition.

| Structure (SMILES) | inhibition at 0.1 µM (P2X7 receptor [1]) | also measured |
| --- | --- | --- |
| CC12CC3CC(C)(C1)CC(CC(=O)Nc1cccc4c(=O)n(Cc5ccccc5)ccc14)(C3)C2 [Compound 751] | 50 to 75% | inhibition at 0.1 µM (P2X7 receptor [2]): 50 to 75% |
| O=C(CC12CC3CC(CC(C3)C1)C2)Nc1cccc2c(=O)n(Cc3ccc4c(c3)OCCO4)ccc12 [Compound 707] |  | inhibition at 0.3 µM (P2X7 receptor [1]): ≥ 75%; inhibition at 0.3 µM (P2X7 receptor [2]): ≥ 75% |
| O=C(CC12CC3CC(CC(C3)C1)C2)Nc1cccc2c(=O)[nH]ccc12 [Compound 804] | ≥ 75% | inhibition at 0.3 µM (P2X7 receptor [2]): ≥ 75% |
| O=C(CC12CC3CC(CC(C3)C1)C2)Nc1cccc2c(=O)n(CC3CCOCC3)ccc12 [Compound 717] |  | inhibition at 0.3 µM (P2X7 receptor [1]): ≥ 75%; inhibition at 0.3 µM (P2X7 receptor [2]): ≥ 75% |
| O=C(CC12CC3CC(CC(C3)C1)C2)Nc1cccc2c1CCN(Cc1ccc(C(F)(F)F)cc1)C2=O [Compound 727] |  | inhibition at 0.3 µM (P2X7 receptor [1]): ≥ 75%; inhibition at 0.3 µM (P2X7 receptor [2]): ≥ 75% |
| O=C(CC12CC3CC(CC(C3)C1)C2)Nc1cccc2c1CCN(Cc1ccccc1)C2=O [Compound 702, 2-Adamantan-1-yl-N-(2-benzyl-1-oxo-1,2,3,4-tetrahydro-isoquinolin-5-yl)-acetamide] |  | inhibition at 0.3 µM (P2X7 receptor [1]): ≥ 75%; inhibition at 0.3 µM (P2X7 receptor [2]): ≥ 75% |
| O=C(CC12CC3CC(CC(C3)C1)C2)Nc1cccc2c(=O)n(CC3CCCO3)ccc12 (stereo not drawn) [Compound 709] |  | inhibition at 0.3 µM (P2X7 receptor [1]): ≥ 75%; inhibition at 0.3 µM (P2X7 receptor [2]): ≥ 75% |
| O=C(CC12CC3CC(CC(C3)C1)C2)Nc1cccc2c(=O)n(CCN3CCOCC3)ccc12 [Compound 780] | ≥ 75% | inhibition at 0.1 µM (P2X7 receptor [2]): ≥ 75% |
| O=C(CC12CC3CC(CC(C3)C1)C2)Nc1cccc2c(=O)n(C[C@H]3CCCN3)ccc12 [Compound 811] | ≥ 75% |  |
| CC12CC3CC(C)(C1)CC(CC(=O)Nc1cccc4c(=O)n(Cc5ccc(S(C)(=O)=O)cc5)ccc14)(C3)C2 [Compound 759] | 50 to 75% |  |
| CN1CCCC1CCn1ccc2c(NC(=O)CC34CC5CC(CC(C5)C3)C4)cccc2c1=O (stereo not drawn) [Compound 788] | ≥ 75% |  |
| O=C(CC12CC3CC(CC(C3)C1)C2)Nc1cccc2c1CCN(Cc1ccccc1F)C2=O [Compound 790] | ≥ 75% |  |
| O=C(CC12CC3CC(CC(C3)C1)C2)Nc1cccc2c1CCN(CC1COCCO1)C2=O (stereo not drawn) [Compound 796] | ≥ 75% |  |
| CC(C)Cn1ccc2c(N(C)C(=O)CC34CC5CC(CC(C5)C3)C4)cccc2c1=O [Compound 893] |  | inhibition at 0.3 µM (P2X7 receptor [1]): 25 to 50% |

Further lines, with some results ahead:

| inhibition at 0.1 µM (P2X7 receptor [1]) | Structure (SMILES) | also measured |
| --- | --- | --- |
| 25 to 50% | O=C(Nc1cccc2c(=O)n(Cc3ccccc3)ccc12)C12CC3CC(CC(F)(C3)C1)C2 [Compound 816, 3-Fluoro-Adamantan-1-yl-N-(2-benzyl-1-oxo-1,2-dihydro-isoquinolin-5-yl)-formamide] |  |
| ≥ 75% | CC(c1cccnc1)n1ccc2c(NC(=O)CC34CC5CC(CC(C5)C3)C4)cccc2c1=O (stereo not drawn) [Compound 837] |  |
| ≥ 75% | CC(C)(CN1CCOCC1)N1CCc2c(NC(=O)CC34CC5CC(CC(C5)C3)C4)cccc2C1=O [Compound 843] |  |
| 50 to 75% | O=C(CC12CC3CC(CC(C3)C1)C2)Nc1cccc2c(=O)n(CCCn3ccnc3)ccc12 [Compound 824] |  |
| ≥ 75% | O=C(CC12CC3CC(CC(C3)C1)C2)Nc1cccc2c1CCN(CC1COc3ccccc3O1)C2=O (stereo not drawn) [Compound 872] |  |
| ≥ 75% | Cc1cccnc1CN1CCc2c(NC(=O)CC34CC5CC(CC(C5)C3)C4)cccc2C1=O [Compound 825] |  |
| ≥ 75% | NC(=O)[C@@H](CC1CCCCC1)n1ccc2c(NC(=O)CC34CC5CC(CC(C5)C3)C4)cccc2c1=O [Compound 881] |  |
| 50 to 75% | CC12CC3CC(C)(C1)CC(CC(=O)Nc1cccc4c(=O)n(Cc5ccc(F)c(F)c5)ccc14)(C3)C2 [Compound 819] |  |
